The text below walks through data of US5691373A, “Nonpeptide endothelin antagonists I” (Warner-Lambert Company, priority 1995, dated 1997).

As usually defined, the IC50 is the concentration at which inhibition is half-maximal.

Assay [1] deals with T1, ETA (Oryctolagus cuniculus, UniProt A5A8K3).
T1 sequence (A5A8K3 21-427): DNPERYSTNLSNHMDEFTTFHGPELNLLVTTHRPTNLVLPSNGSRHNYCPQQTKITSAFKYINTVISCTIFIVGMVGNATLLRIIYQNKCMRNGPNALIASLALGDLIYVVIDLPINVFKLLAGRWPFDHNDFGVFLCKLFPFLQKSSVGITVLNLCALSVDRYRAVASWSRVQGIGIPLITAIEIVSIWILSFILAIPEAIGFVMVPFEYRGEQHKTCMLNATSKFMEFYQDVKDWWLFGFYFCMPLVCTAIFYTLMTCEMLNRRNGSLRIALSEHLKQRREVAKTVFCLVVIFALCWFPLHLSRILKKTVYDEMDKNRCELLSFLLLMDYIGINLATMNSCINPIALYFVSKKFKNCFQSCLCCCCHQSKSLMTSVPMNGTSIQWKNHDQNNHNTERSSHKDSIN
The assay is described as follows: VERA-A: antagonism of ET-1 stimulated vasoconstriction in the rabbit femoral artery (ETA). The format is cell-based. The settings on record: ET-1, rabbit femoral artery; read-out: VERA-A pA2 (converted). The method, then: Male New Zealand rabbits were killed by cervical dislocation and exsanguination. Femoral and pulmonary arteries were isolated, cleaned of connective tissue, and cut into 4-mm rings. The endothelium was denuded by placing the rings over hypodermic tubing (32 gauge for femoral rings and 28 gauge for pulmonary rings, Small Parts, Inc, Miami, Fla.) and gently rolling them. […] Resting tension was adjusted to 3.0 g for femoral and 4.0 g pulmonary arteries; the rings were left for 90 minutes to equilibrate.

In another assay the target is T2, human ETB receptor (Homo sapiens, UniProt P24530).
T2 construct: expressed in transfected cells; host or cells: CHO-K1 cells, pRc-CMW (so in the source) expression vector, electroporation; membranes used
T2 sequence (P24530 27-442): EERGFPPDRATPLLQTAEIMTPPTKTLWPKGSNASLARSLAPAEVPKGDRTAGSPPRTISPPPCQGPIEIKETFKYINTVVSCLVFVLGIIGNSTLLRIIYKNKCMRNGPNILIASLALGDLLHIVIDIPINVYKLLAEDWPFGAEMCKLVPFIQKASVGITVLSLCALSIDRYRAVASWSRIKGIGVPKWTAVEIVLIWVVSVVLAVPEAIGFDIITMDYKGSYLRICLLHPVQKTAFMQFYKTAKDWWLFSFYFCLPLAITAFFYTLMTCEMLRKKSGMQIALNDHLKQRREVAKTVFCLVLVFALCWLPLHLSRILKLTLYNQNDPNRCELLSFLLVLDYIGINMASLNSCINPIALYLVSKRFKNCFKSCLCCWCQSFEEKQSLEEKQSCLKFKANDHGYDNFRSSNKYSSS
Briefly: ERBA-B: [125I]-ET-1 binding, recombinant human ETB receptor expressed in CHO-K1 cells. The settings on record: human cloned ETB receptor, read-out: ERBA-B IC50, human cloned receptor data.

Assay [2] addresses T1, ETA. The settings on record: ERBA-A IC50, [125I]-ET-1, rabbit renal artery vascular smooth muscle cells.
For the next assay, the target named is T3, ETB (Rattus norvegicus, UniProt P21451).
T3 sequence (P21451 27-442): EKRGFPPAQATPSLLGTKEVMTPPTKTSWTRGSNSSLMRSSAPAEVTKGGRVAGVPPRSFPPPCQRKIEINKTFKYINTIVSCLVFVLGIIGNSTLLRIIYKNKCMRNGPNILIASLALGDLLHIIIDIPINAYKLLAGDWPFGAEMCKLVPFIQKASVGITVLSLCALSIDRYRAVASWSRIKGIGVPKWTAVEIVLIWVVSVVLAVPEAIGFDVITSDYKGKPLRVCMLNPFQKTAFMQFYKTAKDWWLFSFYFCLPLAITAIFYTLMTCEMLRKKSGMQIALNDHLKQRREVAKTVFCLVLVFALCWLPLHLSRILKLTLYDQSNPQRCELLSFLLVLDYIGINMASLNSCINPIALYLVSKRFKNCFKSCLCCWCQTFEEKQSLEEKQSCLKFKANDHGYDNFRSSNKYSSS

Each structure is given as a SMILES string. Counter-ions that a name gives are not always drawn.

On to `COc1ccc(C(=O)/C(Cc2ccccc2OC)=C(\C(=O)O)c2ccc3c(c2)OCO3)cc1`, for which, at ETA [1], the Kb is 251 nM.

In the case of `COc1ccc(C2(O)OC(=O)C(c3ccc4c(c3)OCO4)=C2Cc2ccc(NC(C)=O)cc2)cc1` (stereo not shown) [Example 80, N-{4-[4-Benzo[1,3]dioxol-5-yl-2-hydroxy-2-(4-methoxyphenyl)-5-oxo-2,5-dihydro-furan-3-ylmethyl]-phenyl}-acetamide], the Kb on ETA [1] was 63.1 nM. The concentration for half-maximal inhibition (IC50) on human ETB receptor was determined as 880 nM; against ETA [2], 1.4 nM.

With `COc1ccc(C2(O)OC(=O)C(c3ccc4c(c3)OCO4)=C2Cc2ccc(OC(C)C)cc2)cc1` (stereo not shown) [Example 84, 3-Benzo[1,3]dioxol-5-yl-5-hydroxy-4-(isopropoxybenzyl)-5-(4-methoxyphenyl)-5H-furan-2-one], the Kb at ETA [1] is 158 nM. For the same molecule, the results for the IC50 on human ETB receptor and against ETA [2] were 1400 nM and 3.3 nM, respectively.

Take `COc1ccc(C2(O)OC(=O)C(c3ccc4c(c3)OCO4)=C2Cc2ccc(OC)c(Cl)c2)cc1` (stereo not shown) [Example 92, 3-Benzo[1,3]dioxol-5-yl-4-(3-chloro-4-methoxybenzyl)-5-hydroxy-5-(4-methoxyphenyl)-5H-furan-2-one]: the Kb on ETA [1] is 251 nM. For the same molecule, the figures for the IC50 at human ETB receptor and against ETA [2] were 1400 nM and 4 nM, respectively.

For the molecule `CCCCOc1ccc(CC2=C(c3ccc4c(c3)OCO4)C(=O)OC2(O)c2ccc(OC)cc2)cc1` (stereo not shown) [Example 93, 3-Benzo[1,3]dioxol-5-yl-4-(4-butoxybenzyl)-5-hydroxy-5-(4-methoxyphenyl)-5H -furan-2-one], the Kb on ETA [1] is 1000 nM. Besides, the figures for the half-maximal inhibitory concentration (IC50) at human ETB receptor and against ETA [2] were 220 nM and 5.2 nM, respectively.

Consider `COc1ccc(CC2=C(c3cc(OC)cc(OC)c3)C(=O)OC2(O)c2ccc(OC)cc2)cc1` (stereo not shown) [Example 131, 3-(3,5-Dimethoxyphenyl)-5-hydroxy-4-(4-methoxybenzyl)-5-(4-methoxyphenyl)-5H-furan-2-one], for which the Kb at ETA [1] is 501 nM. The IC50 at human ETB receptor was found to be 1350 nM; on ETA [2] it was 15 nM.

For `COc1ccc(C2(O)OC(=O)C(c3cccc(OC)c3)=C2Cc2ccccc2)cc1` (stereo not shown) [Example 153, 4-Benzyl-5-hydroxy-5-(4-methoxyphenyl)-3-(3-methoxyphenyl)-5H-furan-2-one], the IC50 against ETB was determined as 2000 nM; on ETA [2], 360 nM.

For the molecule `CCCOc1cccc(CC2=C(c3cccc(OC)c3)C(=O)OC2(O)c2ccc(OC)cc2)c1` (stereo not shown) [Example 154, 5-Hydroxy-5-(4-methoxyphenyl)-3-(3-methoxyphenyl)-4-(3-propoxybenzyl)-5H-fu ran-2-one], the IC50 at ETB was 2100 nM; against ETA [2], 100 nM.

In the case of `O=C1OC(O)(c2c(F)cccc2F)C(Cc2ccccc2)=C1c1ccc2c(c1)OCO2` (stereo not shown) [Example 158, 3-Benzo[1,3]dioxol-5-yl-4-benzyl-5-(2,6-difluorophenyl)-5-hydroxy-5H-furan-2-one], the IC50 against ETB turned out to be 21000 nM; against ETA [2], 2300 nM.

On to `C=CCOc1cc(CC2=C(c3ccc4c(c3)OCO4)C(=O)OC2(O)c2ccc(OC)cc2)ccc1OC` (stereo not shown) [Example 163, 4-(3-Allyloxy-4-methoxybenzyl)-3-benzo[1,3]dioxol-5-yl-5-hydroxy-5-(4-methoxyphenyl)-5H-furan-2-one], for which the Kb at ETA [1] is 126 nM. Moreover, the IC50 turned out to be 880 nM at human ETB receptor and 20 nM against ETA [2].

As to `COc1ccc(C2(O)OC(=O)C(c3cn(C)c4ccccc34)=C2Cc2ccccc2)cc1` (stereo not shown) [Example 170], the IC50 at ETB was determined as 900 nM; against ETA [2] it was 1300 nM.

In the case of `Cc1ccccc1C1(O)OC(=O)C(c2ccc3c(c2)OCO3)=C1Cc1ccccc1` (stereo not shown) [Example 216, 3-Benzo[1,3]dioxol-5-yl-4-benzyl-5-hydroxy-5-o-tolyl-5H-furan-2-one], the values for the IC50 at ETB and against ETA [2] were 8000 nM and 290 nM, respectively.

On to `COc1cccc(C2(O)OC(=O)C(c3ccc4c(c3)OCO4)=C2Cc2ccccc2)c1` (stereo not shown) [Example 220, 3-Benzo[1,3]dioixol-5-yl-4-benzyl-5-hydroxy-5-(3-methoxyphenyl)-5H-furan-2-one], for which the values for the IC50 at ETB and at ETA [2] were 1500 nM and 300 nM, respectively.

As to `COc1ccc(C2(O)OC(=O)C(c3ccc4c(c3)OCO4)=C2Cc2ccc(SC)cc2)cc1` (stereo not shown) [Example 236, 3-Benzo[1,3]dioxol-5-yl-5-hydroxy-5-(4-methoxyphenyl)-4-(4-methylsulfanylbenzyl)-5H-furan-2-one], on ETA [1], the Kb is 316 nM. Besides, it took 230 nM to reach half-maximal inhibition against ETA [2] (IC50).

Consider `COc1ccc(C2(O)OC(=O)C(c3ccc4c(c3)OCO4)=C2Cc2ccc(S(C)(=O)=O)cc2)cc1` (stereo not shown) [Example 237, 3-Benzo[1,3]dioxol-5-yl-5-hydroxy-4-(4-methanesulfonylbenzyl)-5-(4-methoxyphenyl)-5H-furan-2-one], for which the Kb at ETA [1] is 631 nM. Further, the values for the IC50 at human ETB receptor and at ETA [2] were > 2500 nM and 11 nM, respectively.

Turning to `COc1ccc(C2(O)OC(=O)C(c3ccc4c(c3)OCO4)=C2Cc2ccccc2)c(OC)c1` (stereo not shown) [Example 241, 3-Benzo[1,3]dioxol-5-yl-4-benzyl-5-(2,4-dimethoxyphenyl)-5-hydroxy-5H-furan-2-one], at ETA [1], the Kb is 631 nM. Besides, on ETA [2], 35 nM corresponded to half-maximal inhibition (IC50).

On to `COc1ccc(C2(O)OC(=O)C(c3ccc4c(c3)OCO4)=C2Cc2ccc(OC)c(C)c2C)cc1` (stereo not shown) [Example 254, 3-Benzo[1,3]dioxol-5-yl-5-hydroxy-4-(4-methoxy-2,3-dimethylbenzyl)-5-(4-methoxyphenyl)-5H-furan-2-one], for which the Kb at ETA [1] was 200 nM. Also, the IC50 at human ETB receptor amounted to 2900 nM; against ETA [2] it was 17 nM.

`COc1ccc(C2(O)OC(=O)C(c3cc(OC)c4c(c3)OCO4)=C2Cc2ccccc2)cc1` (stereo not shown) [Example 301, 4-Benzyl-5-hydroxy-3-(7-methoxy-benzo[1,3]dioxol-5-yl)-5(4-methoxy-phenyl)-5H-furan-2-one]: the Kb at ETA [1] was 100 nM. The values for the half-maximal inhibitory concentration (IC50) at human ETB receptor and at ETA [2] were 660 nM and 5.6 nM, respectively.

Turning to `C=CCOc1cc(OC)ccc1C1(O)OC(=O)C(c2ccc3c(c2)OCO3)=C1Cc1ccccc1` (stereo not shown) [Example 329, 3-Benzo[1,3]dioxol-5-yl-5-hydroxy-5-(2-allyloxy-4-methoxy-phenyl)-4-benzyl-5H-furan-2one], the half-inhibitory concentration (IC50) against ETB and against ETA [2] was 110 nM throughout.

Take `COc1ccc(C(=O)/C(Cc2ccccc2)=C(\C(=O)O)c2ccc3c(c2)OCO3)cc1` [Example 351, Sodium 2-benzo[1,3]dioxol-5-yl-3-benzyl-4-(4-methoxyphenyl)-4-oxobut-2-enoate]: on ETA [1], the Kb is 631 nM. Further, the IC50 was > 250 nM at human ETB receptor and 16 nM against ETA [2].

As to `COc1ccc(C(=O)/C(Cc2ccc(OC(C)C)cc2)=C(\C(=O)O)c2ccc3c(c2)OCO3)cc1` [Example 352, 1,3-Benzodioxol-5-acetic acid, α-[2-(4-methoxyphenyl)-1-[[4-(1-methylethoxy)phenyl]methyl]-2-oxoethylene]-, (Z)-, choline salt], at ETA [1], the Kb was 63.1 nM. For the same molecule, the IC50 at human ETB receptor amounted to 1250 nM; at ETA [2], 5 nM.

With `COc1ccc(C2(O)OC(=O)C(c3cc(OC)c4c(c3)OCO4)=C2Cc2cc(OC)c(OC)c(OC)c2)cc1` (stereo not shown) [Example 356, 5-Hydroxy-3-(7-methoxy-benzo[1,3]dioxol-5-yl)-5-(4-methoxy-phenyl)-4-(3,4,5-trimethoxy-benzyl)-5H-furan-2-one], the Kb on ETA [1] is 20 nM. Further, the IC50 at human ETB receptor worked out at 340 nM; against ETA [2], 0.25 nM.
